Experimental data from patent US9221827B2, “Antimicrobial compounds and methods of making and using the same” (Melinta Therapeutics, Inc., priority 2011, dated 2015).

Each molecule was assayed on Escherichia coli strain ATCC25922 (assay: standard microdilution assay to determine minimum inhibitory concentrations (MICs)). Conditions: Escherichia coli strain ATCC25922, microdilution.
Type: cell-based
Method: The in vitro activity of the compounds of the present invention can be determined. Antimicrobial testing is typically performed to determine the minimum inhibitory concentration (MIC). Minimum inhibitory concentrations (MICs) are determined by the microdilution method in a final volume of 100 μl according to protocols outlined by The Clinical and Laboratory Standards Institute (CLSI). Performance standards for reference strains are assessed within the same experimental design to maintain quality control. See, for example, Clinical Laboratory Standards Institute: Methods for dilution antimicrobial susceptibility tests for bacteria that grow aerobically M7-A8. Approved Standard-Eighth Edition. Wayne, Pa.: CLSI; December 2008; and Clinical Laboratory Standards Institute: Performance Standards for Antimicrobial Susceptibility Testing M100-S20; Approved Standard-Twentieth Edition. Wayne, Pa.: CLSI; June 2010.
The compounds of the present invention were tested for antimicrobial activity. […] The compounds were run against Escherichia coli strain ATCC25922 using a standard microdilution assay to determine minimum inhibitory concentrations (MICs). […] A “N/A” means that data is unavailable. It will be recognized by one skilled in the art that the compounds can be assessed against other bacterial organisms and that the presentation of data for activity against Escherichia coli is illustrative and in no way is intended to limit the scope of the present invention. The compounds of the present invention can be assayed against a range of other microorganisms depending upon the performance activity desired to be gathered. Furthermore, the “+”, “−”, and “N/A” representation and the selection of a cutoff value of 16 micrograms/ml is also illustrative and in no way is intended to limit the scope of the present invention.

| SMILES | E. coli ATCC25922 MIC |
| --- | --- |
| N#Cc1cc(CCCCN)cc(-c2cc3cn(-c4ccc(CNCCCNC(=N)N)cc4)c(=O)nc3[nH]2)c1F [Compound 122] | + (a “+” indicates that the compound has an MIC value of 16 micrograms/ml or less) |
| NC(N)=NCCCNCc1ccc(-n2cc3cc(-c4cccc(CCCO)c4)[nH]c3nc2=O)cc1 [Compound 66] | − (a “−” indicates that the compound has an MIC value greater than 16 micrograms/ml) |
| CC(CCN)Cc1cc(SC(F)(F)F)cc(-c2cc3cn(-c4ccc([C@H](C)NCCCNC(=N)N)cc4)c(=O)nc3[nH]2)c1 (stereo partly drawn) [Compound 247] | + (a “+” indicates that the compound has an MIC value of 16 micrograms/ml or less) |
| CC(N)CCCc1cc(CCl)cc(-c2cc3cn(-c4ccc(CNCCCNC(=N)N)cc4)c(=O)nc3[nH]2)c1 (stereo not drawn) [Compound 266] | + (a “+” indicates that the compound has an MIC value of 16 micrograms/ml or less) |
| N=C(N)NCCCNCc1ccc(-n2cc3cc(-c4cc(CCCCN)cc(-c5cccnc5)c4)[nH]c3nc2=O)cc1 [Compound 61] | + (a “+” indicates that the compound has an MIC value of 16 micrograms/ml or less) |
| CC(CN)Cc1cc(Cl)c(F)c(-c2cc3cn(-c4ccc(CNCCCNC(=N)N)cc4)c(=O)nc3[nH]2)c1 (stereo not drawn) [Compound 256] | + (a “+” indicates that the compound has an MIC value of 16 micrograms/ml or less) |
| CC(N)CCc1cc(Cl)c(F)c(-c2cc3cn(-c4ccc(CNCCCNC(=N)N)cc4)c(=O)nc3[nH]2)c1 (stereo not drawn) [Compound 278] | + (a “+” indicates that the compound has an MIC value of 16 micrograms/ml or less) |
| CNC(C)CCCc1cc(-c2cc3cn(-c4ccc(CNCCCNC(=N)N)cc4)c(=O)nc3[nH]2)cc(C(F)(F)F)c1 (stereo not drawn) [Compound 287] | + (a “+” indicates that the compound has an MIC value of 16 micrograms/ml or less) |
| NC(N)=NCCCNCc1ccc(-n2cc3cc(-c4cc(CCCO)ccc4Cl)[nH]c3nc2=O)cc1 [Compound 82] | + (a “+” indicates that the compound has an MIC value of 16 micrograms/ml or less) |
| N=C(N)NCCCNCc1ccc(-n2cc3cc(-c4cc(CCCCN)cc(C(F)(F)F)c4F)[nH]c3nc2=O)cc1 [Compound 111] | + (a “+” indicates that the compound has an MIC value of 16 micrograms/ml or less) |
| CC(N)CCCc1cc(-c2cc3cn(-c4ccc(CNCCCNC(=N)N)cc4)c(=O)nc3[nH]2)cc(C(F)(F)F)c1 (stereo not drawn) [Compound 27] | + (a “+” indicates that the compound has an MIC value of 16 micrograms/ml or less) |
| C[C@@H](CCCc1cc(-c2cc3cn(-c4ccc(CNCCCNC(=N)N)cc4)c(=O)nc3[nH]2)cc(C(F)(F)F)c1)N(C)C [Compound 309] | + (a “+” indicates that the compound has an MIC value of 16 micrograms/ml or less) |
| N=C(N)NCCCNCc1ccc(-n2cc3cc(-c4cc(CCC5(CN)CC5)cc(SC(F)(F)F)c4)[nH]c3nc2=O)cc1 [Compound 307] | + (a “+” indicates that the compound has an MIC value of 16 micrograms/ml or less) |
| CC(=O)Nc1cc(CCCCN)cc(-c2cc3cn(-c4ccc(CNCCCNC(=N)N)cc4)c(=O)nc3[nH]2)c1 [Compound 41] | + (a “+” indicates that the compound has an MIC value of 16 micrograms/ml or less) |
| N=C(N)NCCCNCc1ccc(-n2cc3cc(-c4cc(CSCCN)cc(OC(F)(F)F)c4)[nH]c3nc2=O)cc1 [Compound 8] | + (a “+” indicates that the compound has an MIC value of 16 micrograms/ml or less) |
| CC(C)c1cc(CCCCN)cc(-c2cc3cn(-c4ccc([C@H](C)NCCCNC(=N)N)cc4)c(=O)nc3[nH]2)c1 [Compound 78] | + (a “+” indicates that the compound has an MIC value of 16 micrograms/ml or less) |
| N=C(N)NCCCNCc1ccc(-n2cc3cc(-c4cc(CCCCN)cc(Cl)c4C(F)(F)F)[nH]c3nc2=O)cc1 [Compound 226] | + (a “+” indicates that the compound has an MIC value of 16 micrograms/ml or less) |
| CC(N)CCCc1cc(-c2cc3cn(-c4ccc(CNCCCNC(=N)N)cc4)c(=O)nc3[nH]2)cc(C2CCCC2)c1 (stereo not drawn) [Compound 483] | + (a “+” indicates that the compound has an MIC value of 16 micrograms/ml or less) |
| CCc1cc(CCCC(C)N)cc(-c2cc3cn(-c4ccc(CNCCCNC(=N)N)cc4)c(=O)nc3[nH]2)c1Cl (stereo not drawn) [Compound 283] | + (a “+” indicates that the compound has an MIC value of 16 micrograms/ml or less) |
| N=C(N)NCCCNCc1ccc(-n2cc3cc(-c4cc(C(O)CCCN)ccc4Cl)[nH]c3nc2=O)cc1 (stereo not drawn) [Compound 51] | + (a “+” indicates that the compound has an MIC value of 16 micrograms/ml or less) |
| C=C[C@H](NCCCNC(=N)N)c1ccc(-n2cc3cc(-c4cc(CCC[C@H](C)N)cc(Cl)c4F)[nH]c3nc2=O)cc1 [Compound 475] | + (a “+” indicates that the compound has an MIC value of 16 micrograms/ml or less) |
| N=C(N)NCCCNCc1ccc(-n2cc3cc(-c4cc(CCC5(CN)CC5)cc(F)c4Cl)[nH]c3nc2=O)cc1 [Compound 223] | + (a “+” indicates that the compound has an MIC value of 16 micrograms/ml or less) |
| CC(C)(CN)CCc1cc(F)c(Cl)c(-c2cc3cn(-c4ccc(CNCCCNC(=N)N)cc4)c(=O)nc3[nH]2)c1 [Compound 125] | + (a “+” indicates that the compound has an MIC value of 16 micrograms/ml or less) |
| C=CC(NCCCNC(=N)N)c1ccc(-n2cc3cc(-c4cc(CCCC(C)N)cc(SC(F)(F)F)c4)[nH]c3nc2=O)cc1 (stereo not drawn) [Compound 502] | + (a “+” indicates that the compound has an MIC value of 16 micrograms/ml or less) |
| CC(N)CCCc1cc(-c2cc3cn(-c4ccc(C(C)NCCCNC(=N)N)cc4)c(=O)nc3[nH]2)c(F)c(C(F)(F)F)c1 (stereo not drawn) [Compound 274] | + (a “+” indicates that the compound has an MIC value of 16 micrograms/ml or less) |
| CCCOc1cc(CCCCN)cc(-c2cc3cn(-c4ccc(CNCCCNC(=N)N)cc4)c(=O)nc3[nH]2)c1C(F)(F)F [Compound 251] | + (a “+” indicates that the compound has an MIC value of 16 micrograms/ml or less) |
| N=C(N)NCCCNCc1ccc(-n2cc3cc(-c4cc(CCCCN)cc(-n5ccnc5)c4)[nH]c3nc2=O)cc1 [Compound 59] | + (a “+” indicates that the compound has an MIC value of 16 micrograms/ml or less) |

Same assay, conditions: Escherichia coli strain ATCC25922, standard microdilution assay

| SMILES | E. coli ATCC25922 MIC |
| --- | --- |
| CC(NCCCNC(=N)N)c1ccc(-n2cc3cc(-c4cc(COC(C)C(C)N)cc(OC(F)(F)F)c4)[nH]c3nc2=O)cc1 (stereo not drawn) [Compound 419] | + (a “+” indicates that the compound has an MIC value of 16 micrograms/ml or less) |
| CCC(N)CCCc1cc(SC(F)(F)F)cc(-c2cc3cn(-c4ccc(C(C)NCCCNC(=N)N)cc4)c(=O)nc3[nH]2)c1 (stereo not drawn) [Compound 381] | + (a “+” indicates that the compound has an MIC value of 16 micrograms/ml or less) |
| C[C@H](N)CCCc1cc(-c2cc3cn(-c4ccc(CNCCCNC(=N)N)cc4)c(=O)nc3[nH]2)cc(C(C)(C)C)c1 [Compound 439] | + (a “+” indicates that the compound has an MIC value of 16 micrograms/ml or less) |
| C[C@H](N)CCCc1cc(-c2cc3cn(-c4ccc([C@H](C)NCCCNC(=N)N)cc4)c(=O)nc3[nH]2)cc2c1COC2 [Compound 443] | + (a “+” indicates that the compound has an MIC value of 16 micrograms/ml or less) |
| CC(NCCCNC(=N)N)c1ccc(-n2cc3cc(-c4cc(CC5CC(CN)C5)cc(SC(F)(F)F)c4)[nH]c3nc2=O)cc1 (mixture of isomers) [Compound 401] | + (a “+” indicates that the compound has an MIC value of 16 micrograms/ml or less) |
| C[C@H](NCCCNC(=N)N)c1ccc(-n2cc3cc(-c4cc(COC5COCC5N)cc(OC(F)(F)F)c4)[nH]c3nc2=O)cc1 (stereo partly drawn) [Compound 460] | + (a “+” indicates that the compound has an MIC value of 16 micrograms/ml or less) |
| CCc1cc(CCC[C@H](C)N)nc(-c2cc3cn(-c4ccc([C@H](C)NCCCNC(=N)N)cc4)c(=O)nc3[nH]2)c1 [Compound 388] | + (a “+” indicates that the compound has an MIC value of 16 micrograms/ml or less) |
| CCC(N)CCCc1cc(Cl)c(F)c(-c2cc3cn(-c4ccc(C(C)NCCCNC(=N)N)cc4)c(=O)nc3[nH]2)c1 (stereo not drawn) [Compound 374] | + (a “+” indicates that the compound has an MIC value of 16 micrograms/ml or less) |
| CC(=O)NCCCNCc1ccc(-n2cc3cc(-c4cc(CCC[C@H](C)N)cc(Cl)c4F)[nH]c3nc2=O)cc1 [Compound 386] | − (a “−” indicates that the compound has an MIC value greater than 16 micrograms/ml) |
| C[C@H](N)CCCc1cc(Cl)c(F)c(-c2cc3cn(-c4ccc(CNCCCN/C(N)=N\[N+](=O)[O-])cc4)c(=O)nc3[nH]2)c1 [Compound 394] | + (a “+” indicates that the compound has an MIC value of 16 micrograms/ml or less) |
| CC(NCCCNC(=N)N)c1ccc(-n2cc3cc(-c4cc(CC5CC(CN)C5)cc(C(F)(F)F)c4)[nH]c3nc2=O)cc1 (stereo not drawn) [Compound 350] | + (a “+” indicates that the compound has an MIC value of 16 micrograms/ml or less) |

Same assay, conditions: Escherichia coli strain ATCC25922, standard microdilution assay; read-out: E. coli ATCC25922 MIC

| SMILES | MIC [µg/mL] |
| --- | --- |
| C[C@H](N)CCCc1cc(C(F)(F)F)cc(-c2cc3cn(-c4ccc([C@H](C)NCCCNC(=N)N)cc4)c(=O)nc3[nH]2)n1 [Compound 390] | ≤ 16 |
